Assay [1] addresses T1, Prostaglandin G/H synthase 1 (Ovis aries) (UniProt P05979).
T1 sequence (whole entry): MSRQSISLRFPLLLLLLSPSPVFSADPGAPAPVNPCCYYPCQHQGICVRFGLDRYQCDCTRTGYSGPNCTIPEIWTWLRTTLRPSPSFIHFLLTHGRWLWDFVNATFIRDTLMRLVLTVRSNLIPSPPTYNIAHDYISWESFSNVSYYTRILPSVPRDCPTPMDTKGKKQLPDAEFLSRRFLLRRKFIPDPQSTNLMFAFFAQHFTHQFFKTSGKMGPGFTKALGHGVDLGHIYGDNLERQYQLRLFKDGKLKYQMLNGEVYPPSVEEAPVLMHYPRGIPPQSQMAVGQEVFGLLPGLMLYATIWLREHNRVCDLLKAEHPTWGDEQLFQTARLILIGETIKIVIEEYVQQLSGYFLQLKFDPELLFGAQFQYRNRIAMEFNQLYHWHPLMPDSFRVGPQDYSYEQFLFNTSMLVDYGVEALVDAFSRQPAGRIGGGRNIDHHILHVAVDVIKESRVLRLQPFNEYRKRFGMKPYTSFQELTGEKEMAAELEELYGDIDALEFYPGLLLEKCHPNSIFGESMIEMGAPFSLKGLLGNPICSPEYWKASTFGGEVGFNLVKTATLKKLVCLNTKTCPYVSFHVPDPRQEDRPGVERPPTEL
The assay is described as follows: Inhibition of sheep COX1 at 10 uM by enzyme immunoassay.

Assay [2] has as its target T2, Prostaglandin G/H synthase 1 (Ovis aries, UniProt P05979).
T2 sequence (P05979 whole entry): T1 sequence (whole entry)
The assay is described as follows: Inhibition of sheep COX1 by enzyme immunoassay.

A further assay is filed under the species Ovis aries. The assay is described as follows: Selectivity index, ratio of IC50 for sheep COX1 to IC50 for sheep COX2.

A word on the inhibition: it is the relative decrease from the control value, in per cent. As usually defined, the IC50 is the concentration needed to halve the response being measured. A low value points to greater potency in that assay.

The structures appear in SMILES notation.

In the case of `COc1ccc(-n2nc(C(F)(F)F)cc2-c2ccc3c(c2)oc(=O)n3C)cc1`, the inhibition in assay [1] came to 95.6%. This molecule showed an IC50 in assay [2] of 4 nM.

As to `Cn1c(=O)oc2cc(-c3cc(C(F)(F)F)nn3-c3ccc(Cl)cc3)ccc21`, the inhibition in assay [1] amounted to 91.2%. In assay [2], the half-inhibitory concentration (IC50) is 1000 nM.

As for `Cn1c(=O)oc2cc(-c3cc(C(F)(F)F)nn3-c3ccc(F)cc3)ccc21`, the inhibition in assay [1] is 55.5%. Further, the Ratio IC50 in the assay listed under Ovis aries amounted to 6. Also, the concentration for half-maximal inhibition (IC50) in assay [2] is 6000 nM.

On to `COc1ccc(C2=C(c3ccc4c(c3)oc(=O)n4C)COC2=O)cc1`, for which the inhibition in assay [1] came to 59.8%. The molecule further registered a half-inhibitory concentration (IC50) in assay [2] of 61 nM.
